# Key:
# [1] = tested on: RT112/84 cells (FGFR3-fusion); assay: RT112/84 cancer cell line cell viability assay (CellTiter-Glo 2.0); format: cell-based; conditions: Homo sapiens, 72 hours, Cell Titer Glo 2.0
# Source text: (§1) Experimental Purpose: To detect the change of intracellular ATP by Cell Titer-Glo® and to evaluate the inhibitory effect of the compounds on cancer cell lines by determining the in vitro IC50 value of the compounds.
# (§2) Cell Titer-Glo® 2.0 Luminescent cell viability assay reagent was purchased from Promega (Madison, WI). RT112/84 and KG-1 cell lines were purchased from American Type Culture Collection (Manassas, VA). UM-UC-14 cell line was purchased from Sigma (St. Louis, MO). RT112/84, UM-UC-14, and KG-1 cells were cultured in RPMI1640 media supplemented with 10% fetal bovine serum. Cultures were maintained at 37° C. in a humidified atmosphere of 5% C02 and 95% air.
# (§3) Cell Viability Assay Procedure: Cells were plated in 96-well clear bottom/white plates (Corning #3903) at 10,000 cells/well in 100 μl of media, incubated overnight. The next day, test compound DMSO stock solutions were made at 10 mM and 2 μM final concentration. Compounds were then added to cells in a 9-dose, 10-fold dilution series starting at 30 μM with an HP 300e Digital Dispenser (each dose was applied in triplicate). DMSO was backfilled to each well up to 301 nL total volume of test compound+DMSO, and a total of 301 nL DMSO was added to a control/no test compound well in triplicate. The cells in cell culture plates were incubated with the compounds at 37° C. and 5% C02 for 72 hours. Then 50 μl of Cell Titer Glo 2.0 reagent was added to each well of the cell culture plates. The contents were covered from light and mixed on an orbital shaker at room temperature for 10 min. Luminescence was recorded by a Synergy H1 Microplate Reader (Biotek, Winooski, VT). Cells were assessed as a percentage of DMSO only treated control cells. Curves were plotted and IC50 values were calculated using the GraphPad Prism 8 program based on a sigmoidal dose-response equation (4 parameter).
# [2] = tested on: KG-1 cells (FGFR1-fusion); assay: KG-1 cancer cell line cell viability assay (CellTiter-Glo 2.0); format: cell-based; conditions: Homo sapiens, 72 hours, Cell Titer Glo 2.0
# Source text: as §1, §2, §3
# [3] = target: FGFR3-BAIAP2L1 Ba/F3 cells (Homo sapiens, UniProt P22607); assay: Ba/F3 cell viability assay (CellTiter-Glo 2.0), FGFR3-BAIAP2L1 Ba/F3; format: cell-based; conditions: for Ba/F3 FGFR1/FGFR3 Selectivity: FGFR3 > FGFR1 selectivity ratio in Ba/F3 FGFR fusion cell based assays; for IC50: read-out: Ba/F3 Cells FGFR3 (IC50 nM), FGFR3-BAIAP2L1 Ba/F3 cells, 48 hours, Cell Titer Glo 2.0
# Method in brief: (§4)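 Viability read as ATP luminescence (CellTiter-Glo 2.0) after 48 h compound exposure, normalized to DMSO-treated cells and fitted with a 4-parameter curve for IC50. Cells: Ba/F3 dependent on FGFR1-BCR or FGFR3-BAIAP2L1 fusion kinase; top dose 30 μM, 10-fold steps, 9 doses in triplicate.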
# FGFR1-BCR Ba/F3 cells = FGFR1-BCR Ba/F3 cells (Homo sapiens, UniProt P11362); assay: Ba/F3 cell viability assay (CellTiter-Glo 2.0), FGFR1-BCR Ba/F3; format: cell-based; conditions: read-out: Ba/F3 Cells FGFR1 (IC50 nM), 48 hours, Cell Titer Glo 2.0
# Method in brief: as §4
# FGFR3 = FGFR3 (Homo sapiens (Human), UniProt P22607); assay: Kinase assay, binding constants (Kd), kinase-tagged T7 phage, qPCR
# Method in brief: (§5)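 Using T7 phage lysates from BL21-derived E. coli, compounds at 0.9% final DMSO competed for kinase binding to ligand-bearing magnetic beads. After elution, qPCR measured remaining kinase, and Kds were fitted by non-linear least squares with the Hill slope fixed at −1.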
# FGFR1 = FGFR1 (Homo sapiens (Human), UniProt P11362); assay: as above
# Method in brief: as §5
# FGFR2 = FGFR2 (Homo sapiens (Human), UniProt P21802); assay: as above
# Method in brief: as §5
# FGFR4 = FGFR4 (Homo sapiens (Human), UniProt P22455); assay: as above
# Method in brief: as §5
# FGFR3 (V555M) = FGFR3 (V555M) (Homo sapiens (Human), UniProt P22607, V555M); assay: as above; conditions: V555M mutant
# Method in brief: as §5
# FGFR1-BCR Ba/F3 cells, sequence (P11362 22-822 limits assumed, change not shown): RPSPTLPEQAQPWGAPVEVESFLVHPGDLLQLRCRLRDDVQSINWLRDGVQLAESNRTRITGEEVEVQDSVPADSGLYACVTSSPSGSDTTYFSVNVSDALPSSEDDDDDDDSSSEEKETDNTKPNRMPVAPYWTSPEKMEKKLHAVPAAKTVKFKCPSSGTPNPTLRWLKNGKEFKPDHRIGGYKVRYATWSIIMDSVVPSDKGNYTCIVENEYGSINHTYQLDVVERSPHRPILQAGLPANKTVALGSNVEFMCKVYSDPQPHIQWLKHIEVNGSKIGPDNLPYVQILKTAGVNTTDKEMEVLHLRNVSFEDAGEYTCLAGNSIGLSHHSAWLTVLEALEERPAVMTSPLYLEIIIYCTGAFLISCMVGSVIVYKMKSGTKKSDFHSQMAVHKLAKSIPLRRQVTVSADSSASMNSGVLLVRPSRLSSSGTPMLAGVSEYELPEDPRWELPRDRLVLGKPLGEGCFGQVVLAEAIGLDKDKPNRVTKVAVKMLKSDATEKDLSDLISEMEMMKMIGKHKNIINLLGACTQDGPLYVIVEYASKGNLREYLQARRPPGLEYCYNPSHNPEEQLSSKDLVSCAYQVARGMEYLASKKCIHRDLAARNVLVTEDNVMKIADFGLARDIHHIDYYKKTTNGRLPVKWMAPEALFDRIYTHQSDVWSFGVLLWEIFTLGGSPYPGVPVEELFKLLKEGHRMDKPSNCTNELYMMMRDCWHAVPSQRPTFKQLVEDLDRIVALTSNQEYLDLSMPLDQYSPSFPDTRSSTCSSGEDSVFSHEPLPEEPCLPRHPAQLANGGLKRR
# FGFR1, sequence (P11362 22-822): as the sequence (P11362 22-822 limits assumed, change not shown) above
# FGFR4, sequence (P22455 22-802): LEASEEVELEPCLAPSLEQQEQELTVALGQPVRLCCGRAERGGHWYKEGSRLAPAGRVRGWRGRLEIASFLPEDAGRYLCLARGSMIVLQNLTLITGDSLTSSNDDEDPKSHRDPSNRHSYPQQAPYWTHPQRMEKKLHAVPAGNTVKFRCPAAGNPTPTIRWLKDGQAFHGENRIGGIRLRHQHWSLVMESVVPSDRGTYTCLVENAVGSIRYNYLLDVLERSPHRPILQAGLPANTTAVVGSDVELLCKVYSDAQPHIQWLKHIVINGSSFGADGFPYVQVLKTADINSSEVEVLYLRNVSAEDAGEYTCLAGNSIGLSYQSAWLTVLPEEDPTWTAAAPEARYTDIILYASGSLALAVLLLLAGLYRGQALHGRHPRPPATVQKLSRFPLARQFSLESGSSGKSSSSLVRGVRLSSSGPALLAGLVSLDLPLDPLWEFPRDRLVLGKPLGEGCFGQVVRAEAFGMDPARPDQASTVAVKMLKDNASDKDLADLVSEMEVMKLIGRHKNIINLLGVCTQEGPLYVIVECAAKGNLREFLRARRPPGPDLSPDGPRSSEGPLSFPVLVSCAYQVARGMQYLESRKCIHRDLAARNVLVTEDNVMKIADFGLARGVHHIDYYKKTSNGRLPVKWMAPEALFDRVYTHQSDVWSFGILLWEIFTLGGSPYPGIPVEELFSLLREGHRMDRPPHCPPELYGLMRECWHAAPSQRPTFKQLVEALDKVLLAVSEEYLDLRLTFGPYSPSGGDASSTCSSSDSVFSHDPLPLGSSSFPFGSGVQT
# FGFR3 (V555M), sequence (P22607 23-806 V555M): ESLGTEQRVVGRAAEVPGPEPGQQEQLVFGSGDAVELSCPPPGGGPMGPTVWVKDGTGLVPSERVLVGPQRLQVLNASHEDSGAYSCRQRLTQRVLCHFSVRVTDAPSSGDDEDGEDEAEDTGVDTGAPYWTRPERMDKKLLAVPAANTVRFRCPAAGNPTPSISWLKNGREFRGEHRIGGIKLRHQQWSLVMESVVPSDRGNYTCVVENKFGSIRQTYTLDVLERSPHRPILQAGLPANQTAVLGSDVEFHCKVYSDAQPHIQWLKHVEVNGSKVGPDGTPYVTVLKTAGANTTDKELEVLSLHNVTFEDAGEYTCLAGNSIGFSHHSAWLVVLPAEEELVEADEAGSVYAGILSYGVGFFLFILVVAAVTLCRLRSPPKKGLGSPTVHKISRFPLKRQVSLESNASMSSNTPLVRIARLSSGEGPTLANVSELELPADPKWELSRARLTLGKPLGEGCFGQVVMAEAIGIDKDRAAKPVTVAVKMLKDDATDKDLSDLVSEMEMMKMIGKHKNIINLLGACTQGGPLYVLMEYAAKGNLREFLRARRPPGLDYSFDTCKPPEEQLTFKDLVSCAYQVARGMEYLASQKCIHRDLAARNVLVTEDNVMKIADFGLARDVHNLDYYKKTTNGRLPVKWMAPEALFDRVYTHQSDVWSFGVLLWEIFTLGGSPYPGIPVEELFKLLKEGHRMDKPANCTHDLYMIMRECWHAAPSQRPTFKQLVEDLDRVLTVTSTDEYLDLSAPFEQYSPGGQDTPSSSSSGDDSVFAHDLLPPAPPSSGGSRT
# FGFR2, sequence (P21802 22-821): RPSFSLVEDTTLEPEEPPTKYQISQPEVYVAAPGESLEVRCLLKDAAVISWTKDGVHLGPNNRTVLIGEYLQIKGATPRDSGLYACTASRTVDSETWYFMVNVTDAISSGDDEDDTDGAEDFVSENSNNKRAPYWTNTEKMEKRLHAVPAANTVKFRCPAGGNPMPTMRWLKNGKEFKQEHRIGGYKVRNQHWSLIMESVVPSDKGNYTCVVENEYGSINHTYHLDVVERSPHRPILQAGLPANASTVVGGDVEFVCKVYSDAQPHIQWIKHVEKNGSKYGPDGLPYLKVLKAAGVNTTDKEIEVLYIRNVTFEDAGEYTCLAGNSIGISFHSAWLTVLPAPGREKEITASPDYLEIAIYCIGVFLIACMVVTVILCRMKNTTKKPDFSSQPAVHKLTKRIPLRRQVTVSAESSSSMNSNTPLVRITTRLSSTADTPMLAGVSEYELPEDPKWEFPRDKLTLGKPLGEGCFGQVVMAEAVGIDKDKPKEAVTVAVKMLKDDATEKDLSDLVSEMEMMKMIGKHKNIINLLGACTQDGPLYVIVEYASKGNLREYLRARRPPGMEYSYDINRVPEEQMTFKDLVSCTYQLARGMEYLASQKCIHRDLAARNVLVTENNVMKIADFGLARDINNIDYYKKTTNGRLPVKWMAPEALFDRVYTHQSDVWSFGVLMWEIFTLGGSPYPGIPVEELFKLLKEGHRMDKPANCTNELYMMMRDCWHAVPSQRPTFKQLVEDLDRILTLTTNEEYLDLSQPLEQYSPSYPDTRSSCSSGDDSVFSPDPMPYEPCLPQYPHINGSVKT
# FGFR3-BAIAP2L1 Ba/F3 cells, sequence (P22607 23-806 limits assumed, change not shown): as the sequence (P22607 23-806 V555M) above, with M533V counted along it
# FGFR3, sequence (P22607 23-806): as the sequence (P22607 23-806 V555M) above, with M533V counted along it
smiles,measurement,setting,value
"C[C@@H](Oc1ccc2[nH]nc(-c3cnn(C4CCOCC4)c3)c2c1)c1c(Cl)cncc1Cl [Example 106, 5-[(1R)-1-(3,5-dichloro-4-pyridyl)ethoxy]-3-(1-tetrahydropyran-4-ylpyrazol-4-yl)-1H-indazole]",IC50,[1],1 to 20 nM
same,IC50,[2],100 to 300 nM
same,Ba/F3 FGFR1/FGFR3 Selectivity,[3],11
same,IC50,[3],1 to 20 nM
same,IC50,FGFR1-BCR Ba/F3 cells,100 to 300 nM
same,Kd,FGFR3,1 to 20 nM
same,Kd,FGFR1,1 to 20 nM
same,Kd,FGFR2,1 to 20 nM
same,Kd,FGFR4,1 to 20 nM
same,Kd,FGFR3 (V555M),1 to 20 nM
"CCS(=O)(=O)N1CC2(CN(c3ccc(-c4n[nH]c5ccc(O[C@H](C)c6c(Cl)cncc6Cl)cc45)cn3)C2)C1 [Example 124, 5-[(1R)-1-(3,5-dichloro-4-pyridyl)ethoxy]-3-[6-(2-ethylsulfonyl-2,6-diazaspiro[3.3]heptan-6-yl)-3-pyridyl]-1H-indazole]",IC50,[1],1 to 20 nM
same,IC50,[2],100 to 300 nM
same,Ba/F3 FGFR1/FGFR3 Selectivity,[3],17
same,IC50,[3],1 to 20 nM
same,IC50,FGFR1-BCR Ba/F3 cells,100 to 300 nM
same,Kd,FGFR3,1 to 20 nM
same,Kd,FGFR1,20 to 100 nM
same,Kd,FGFR2,20 to 100 nM
same,Kd,FGFR4,1 to 20 nM
same,Kd,FGFR3 (V555M),1 to 20 nM
"C[C@@H](Oc1ccc2[nH]nc(-c3ccc(N4CCC5(CC4)CN(C)CC(=O)N5C)nc3)c2c1)c1c(Cl)cncc1Cl [Example 98, 9-[5-[5-[(1R)-1-(3,5-dichloro-4-pyridyl)ethoxy]-1H-indazol-3-yl]-2-pyridyl]-1,4-dimethyl-1,4,9-triazaspiro[5.5]undecan-2-one]",IC50,[1],1 to 20 nM
same,IC50,[2],20 to 100 nM
same,Ba/F3 FGFR1/FGFR3 Selectivity,[3],24
same,IC50,[3],1 to 20 nM
same,IC50,FGFR1-BCR Ba/F3 cells,20 to 100 nM
same,Kd,FGFR3,1 to 20 nM
same,Kd,FGFR1,1 to 20 nM
same,Kd,FGFR2,1 to 20 nM
same,Kd,FGFR4,1 to 20 nM
same,Kd,FGFR3 (V555M),1 to 20 nM
"C[C@@H](Oc1ccc2[nH]nc(-c3cnn(C4CCN(C)CC4)c3)c2c1)c1c(Cl)cncc1Cl [Example 65, 5-[(1R)-1-(3,5-dichloro-4-pyridyl)ethoxy]-3-[1-(1-methyl-4-piperidyl)pyrazol-4-yl]-1H-indazole]",IC50,[1],1 to 20 nM
same,IC50,[2],20 to 100 nM
same,IC50,[3],1 to 20 nM
same,IC50,FGFR1-BCR Ba/F3 cells,20 to 100 nM
same,Kd,FGFR3,1 to 20 nM
same,Kd,FGFR1,1 to 20 nM
same,Kd,FGFR2,1 to 20 nM
same,Kd,FGFR4,1 to 20 nM
same,Kd,FGFR3 (V555M),1 to 20 nM
"C[C@@H](Oc1ccc2[nH]nc(-c3cnn(C4CCN(C5COC5)CC4)c3)c2c1)c1c(Cl)cncc1Cl [Example 87, 5-[(1R)-1-(3,5-dichloro-4-pyridyl)ethoxy]-3-[1-[1-(oxetan-3-yl)-4-piperidyl]pyrazol-4-yl]-1H-indazole]",IC50,[1],1 to 20 nM
same,IC50,[2],20 to 100 nM
same,Ba/F3 FGFR1/FGFR3 Selectivity,[3],17
same,IC50,[3],1 to 20 nM
same,IC50,FGFR1-BCR Ba/F3 cells,20 to 100 nM
same,Kd,FGFR3,1 to 20 nM
same,Kd,FGFR1,1 to 20 nM
same,Kd,FGFR2,1 to 20 nM
same,Kd,FGFR4,20 to 100 nM
same,Kd,FGFR3 (V555M),1 to 20 nM
"CC(C)S(=O)(=O)N1CC2(CN(c3ncc(-c4n[nH]c5ccc(O[C@H](C)c6c(Cl)cncc6Cl)cc45)cn3)C2)C1 [Example 120, 5-[(1R)-1-(3,5-dichloro-4-pyridyl)ethoxy]-3-[2-(2-isopropylsulfonyl-2,6-diazaspiro[3.3]heptan-6-yl)pyrimidin-5-yl]-1H-indazole]",IC50,[1],20 to 100 nM
same,IC50,[2],> 300 nM
same,Ba/F3 FGFR1/FGFR3 Selectivity,[3],7
same,IC50,[3],20 to 100 nM
same,IC50,FGFR1-BCR Ba/F3 cells,100 to 300 nM
same,Kd,FGFR3,1 to 20 nM
same,Kd,FGFR1,20 to 100 nM
same,Kd,FGFR2,20 to 100 nM
same,Kd,FGFR4,1 to 20 nM
same,Kd,FGFR3 (V555M),1 to 20 nM
"COC(=O)N1CC2(C1)CN(c1ccc(-c3n[nH]c4ccc(O[C@H](C)c5c(Cl)cncc5Cl)cc34)cn1)C2 [Example 123, methyl 6-[5-[5-[(1R)-1-(3,5-dichloro-4-pyridyl)ethoxy]-1H-indazol-3-yl]-2-pyridyl]-2,6-diazaspiro[3.3]heptane-2-carboxylate]",IC50,[1],1 to 20 nM
same,IC50,[2],100 to 300 nM
same,Ba/F3 FGFR1/FGFR3 Selectivity,[3],15
same,IC50,[3],1 to 20 nM
same,IC50,FGFR1-BCR Ba/F3 cells,20 to 100 nM
same,Kd,FGFR3,1 to 20 nM
same,Kd,FGFR1,1 to 20 nM
same,Kd,FGFR2,1 to 20 nM
same,Kd,FGFR4,1 to 20 nM
same,Kd,FGFR3 (V555M),1 to 20 nM

# Reference: US20240109865A1, “INDAZOLE COMPOUNDS AS KINASE INHIBITORS” (TYRA BIOSCIENCES, INC., priority 2020, published 2024)
